The source of these data is ChEMBL document CHEMBL1134487, “Design, synthesis, and biological evaluation of analogues of the antitumor agent, 2-(4-[(7-chloro-2-quinoxalinyl)oxy]phenoxy)propionic acid (XK469)” (2001).

What is called T/C is the result in the treated group divided by that in the control group, in per cent.

Where only a bound is given, the exact number is not on record here.

For assay [1], the system named is Mus musculus. The assay is described as follows: In vivo activity tested against C3H mice bearing colon adenocarcinoma -38(colon-38) tumor, measured as cures at 466 mg/kg (po); 3/5 cures. Format: functional.
The subject of assay [2] is Mus musculus. In words: In vivo activity tested against C3H mice bearing colon adenocarcinoma -38(colon-38) tumor measured as log Kill value was based on tumors that grew at 466 mg/kg (po). In kind it is functional, organism-based. The arrangement: dose 466 mg/kg.
In assay [3] the test system is Mus musculus. The assay is described as follows: In vivo activity tested against C3H mice bearing colon adenocarcinoma -38(colon-38) tumor measured as body weight loss at 753 mg/kg (po). In kind it is functional.
Assay [4] has as its system Mus musculus. The assay is described as follows: In vivo activity tested against C3H mice bearing colon adenocarcinoma -38(colon-38) tumor, measured as cures at 753 mg/kg (po); 2/5 cures. Format: functional.
Assay [5] relates to Mus musculus. In words: In vivo activity tested against C3H mice bearing colon adenocarcinoma -38(colon-38) tumor measured as activity rating at 753 mg/kg (po). Format: functional.
For assay [6], the system named is Mus musculus. In words: In vivo activity tested against C3H mice bearing colon adenocarcinoma -38(colon-38) tumor measured as % treated/control calculated at 466 mg/kg (po). In kind it is functional.
Assay [7] deals with Mus musculus. The assay is described as follows: In vivo activity tested against C3H mice bearing colon adenocarcinoma -38(colon-38) tumor measured as activity rating at 466 mg/kg (po). In kind it is functional.
In assay [8] the test system is Mus musculus. In words: In vivo activity tested against C3H mice bearing colon adenocarcinoma -38(colon-38) tumor measured as % treated/control calculated at 753 mg/kg (po). Format: functional.
The test system of assay [9] is Mus musculus. The assay is described as follows: In vivo activity tested against C3H mice bearing colon adenocarcinoma -38(colon-38) tumor measured as log Kill value was based on tumors that grew at 753 mg/kg (po). In kind it is functional, organism-based. The arrangement: dose 753 mg/kg.
The test system of assay [10] is Mus musculus. The assay is described as follows: In vivo activity tested against C3H mice bearing colon adenocarcinoma -38(colon-38) tumor measured as body weight loss at 466 mg/kg (po). In kind it is functional.

With `CC(Oc1ccc(Oc2cnc3ccc(Br)cc3n2)cc1)C(=O)O` (stereo not given), the Cures was found to be 3 in assay [1] and 2 in assay [4]. Further, the Log kill in assay [2] amounted to 2.1; in assay [9] it was 3. The Body weight loss in assay [3] was -12%; in [10], -7%. For the same compound, the Activity rating in assay [5] is above 2.8; in [7] it was 2.8. For the same compound, the T/C in assay [6] and in assay [8] was 0% each time.
